# Key:
# EGFR L858R = molecular target: T1, EGFR L858R (Homo sapiens, UniProt P00533, L858R); assay: Biochemical EGFR inhibition assay (Caliper mobility shift), EGFR L858R; conditions: biochemical Caliper mobility shift assay, EGFR L858R enzyme; read-out: Enz EGFR L858R IC50
# T1 construct: purchased SignalChem E10-122BG
# How it was run: (§1)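 Kinase activity measured as phosphorylation of 2.5 µM 5-FAM-labelled peptide substrate in 100 mM HEPES pH 7.5, 10 mM MgCl2, 0.015% Brij-35, 1 mM DTT, 1.0% DMSO, at 1.0 mM ATP or ATP Km. Run at 25 °C to 10–20% conversion, stopped with EDTA; product resolved by mobility shift, apparent IC50 from percent activity vs log concentration.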
# EGFR (d746-750) = molecular target: T2, EGFR (d746-750) (Homo sapiens, UniProt P00533, DEL746-750); assay: Biochemical EGFR inhibition assay (Caliper mobility shift), EGFR (d746-750); conditions: biochemical Caliper mobility shift assay, EGFR Exon 19-del enzyme; read-out: Enz EGFR Exon 19-del IC50
# T2 construct: purchased SignalChem E10-122JG
# T2 sequence (P00533 with tags, fused parts or gaps DEL746-750 limits assumed): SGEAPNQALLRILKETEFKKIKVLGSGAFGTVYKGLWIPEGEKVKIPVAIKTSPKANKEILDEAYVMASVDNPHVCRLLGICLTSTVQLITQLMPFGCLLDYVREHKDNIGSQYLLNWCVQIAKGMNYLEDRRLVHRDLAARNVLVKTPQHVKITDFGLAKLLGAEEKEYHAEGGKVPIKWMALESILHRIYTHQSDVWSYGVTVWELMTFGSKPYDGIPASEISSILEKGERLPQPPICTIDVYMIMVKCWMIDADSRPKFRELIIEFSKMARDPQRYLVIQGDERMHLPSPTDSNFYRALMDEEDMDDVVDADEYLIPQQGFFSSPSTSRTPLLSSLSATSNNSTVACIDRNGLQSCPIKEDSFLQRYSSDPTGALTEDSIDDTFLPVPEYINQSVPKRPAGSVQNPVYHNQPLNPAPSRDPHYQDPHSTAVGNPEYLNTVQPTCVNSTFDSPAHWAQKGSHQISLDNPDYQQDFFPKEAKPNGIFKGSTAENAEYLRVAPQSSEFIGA
# How it was run: as §1
# [1] = molecular target: intracellular phosphorylation of EGFR (Tyr1068) in PC-9 cells (Homo sapiens, UniProt P00533, DEL746-750); assay: PC-9 pEGFR AlphaLISA assay; assay type: cell-based; conditions: 4 hours incubation, read-out: Phos EGFR PC9 IC50
# Sequence of intracellular phosphorylation of EGFR (Tyr1068) in PC-9 cells (P00533 with tags, fused parts or gaps DEL746-750): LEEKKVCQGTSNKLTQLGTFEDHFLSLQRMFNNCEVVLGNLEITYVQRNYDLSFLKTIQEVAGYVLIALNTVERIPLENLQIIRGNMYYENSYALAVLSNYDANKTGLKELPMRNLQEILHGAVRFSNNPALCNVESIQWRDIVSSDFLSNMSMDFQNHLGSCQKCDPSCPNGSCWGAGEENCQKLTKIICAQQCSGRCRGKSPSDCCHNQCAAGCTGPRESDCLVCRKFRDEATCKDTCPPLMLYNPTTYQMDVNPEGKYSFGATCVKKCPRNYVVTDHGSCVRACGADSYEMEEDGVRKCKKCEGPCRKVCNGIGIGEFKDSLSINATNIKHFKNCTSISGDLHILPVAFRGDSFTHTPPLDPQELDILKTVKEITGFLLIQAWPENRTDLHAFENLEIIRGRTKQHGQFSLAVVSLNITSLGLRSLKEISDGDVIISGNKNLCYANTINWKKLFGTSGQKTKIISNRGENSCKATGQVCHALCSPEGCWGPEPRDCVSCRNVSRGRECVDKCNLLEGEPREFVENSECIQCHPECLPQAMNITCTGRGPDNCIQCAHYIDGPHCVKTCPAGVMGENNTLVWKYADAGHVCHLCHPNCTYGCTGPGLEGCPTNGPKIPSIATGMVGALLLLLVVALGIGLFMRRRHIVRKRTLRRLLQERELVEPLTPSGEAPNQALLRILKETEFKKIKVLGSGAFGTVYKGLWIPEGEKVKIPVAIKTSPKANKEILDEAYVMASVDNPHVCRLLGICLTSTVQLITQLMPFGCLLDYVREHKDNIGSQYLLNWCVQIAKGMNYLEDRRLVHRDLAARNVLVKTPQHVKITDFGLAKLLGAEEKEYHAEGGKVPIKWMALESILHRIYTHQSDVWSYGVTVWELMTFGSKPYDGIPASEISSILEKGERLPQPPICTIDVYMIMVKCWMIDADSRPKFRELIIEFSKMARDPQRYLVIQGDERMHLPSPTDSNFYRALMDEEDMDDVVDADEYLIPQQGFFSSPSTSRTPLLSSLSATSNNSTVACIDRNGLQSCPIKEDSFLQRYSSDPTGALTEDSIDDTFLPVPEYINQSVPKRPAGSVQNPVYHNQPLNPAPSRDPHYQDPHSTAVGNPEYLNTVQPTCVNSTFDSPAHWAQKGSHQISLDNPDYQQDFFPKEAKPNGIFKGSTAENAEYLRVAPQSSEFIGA
# How it was run: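 PC-9 cells (EGFR del746-750) in phenol-free DMEM/10% FBS, adhered overnight, then exposed to 10-point 4-fold compound dilutions for 4 h at 37 °C. Lysates assayed for pEGFR Tyr1068 by AlphaLISA SureFire Ultra; IC50 from percent pEGFR inhibition vs log concentration.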
# T1 sequence (P00533 25-1210 L858R): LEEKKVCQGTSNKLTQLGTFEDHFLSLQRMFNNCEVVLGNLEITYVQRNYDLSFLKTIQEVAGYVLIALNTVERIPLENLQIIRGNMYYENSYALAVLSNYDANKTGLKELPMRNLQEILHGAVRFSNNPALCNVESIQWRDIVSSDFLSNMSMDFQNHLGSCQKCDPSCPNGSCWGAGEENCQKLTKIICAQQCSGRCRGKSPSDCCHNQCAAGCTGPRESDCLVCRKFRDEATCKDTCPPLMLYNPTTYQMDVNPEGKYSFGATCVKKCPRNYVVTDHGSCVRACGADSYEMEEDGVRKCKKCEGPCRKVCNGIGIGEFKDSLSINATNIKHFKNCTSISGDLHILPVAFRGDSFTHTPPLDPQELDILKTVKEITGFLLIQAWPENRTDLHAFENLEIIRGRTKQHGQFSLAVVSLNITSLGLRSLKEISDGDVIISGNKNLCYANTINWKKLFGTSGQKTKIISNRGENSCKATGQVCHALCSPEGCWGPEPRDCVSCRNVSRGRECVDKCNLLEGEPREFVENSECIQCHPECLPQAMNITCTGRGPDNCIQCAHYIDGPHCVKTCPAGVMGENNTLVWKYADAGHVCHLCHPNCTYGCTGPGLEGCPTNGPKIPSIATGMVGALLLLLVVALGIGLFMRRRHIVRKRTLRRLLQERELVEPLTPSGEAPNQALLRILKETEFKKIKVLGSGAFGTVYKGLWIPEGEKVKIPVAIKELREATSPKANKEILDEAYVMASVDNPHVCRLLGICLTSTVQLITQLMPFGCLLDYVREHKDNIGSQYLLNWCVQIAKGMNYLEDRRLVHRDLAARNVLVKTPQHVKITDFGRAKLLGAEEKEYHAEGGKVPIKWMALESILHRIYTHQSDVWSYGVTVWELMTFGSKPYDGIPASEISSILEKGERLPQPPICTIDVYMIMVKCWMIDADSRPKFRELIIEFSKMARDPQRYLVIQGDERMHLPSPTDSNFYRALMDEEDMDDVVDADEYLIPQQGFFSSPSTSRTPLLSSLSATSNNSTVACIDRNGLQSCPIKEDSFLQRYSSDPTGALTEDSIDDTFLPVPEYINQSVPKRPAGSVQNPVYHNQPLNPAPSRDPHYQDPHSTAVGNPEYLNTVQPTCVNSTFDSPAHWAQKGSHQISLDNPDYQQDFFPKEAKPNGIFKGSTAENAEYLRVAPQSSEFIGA
Structure (SMILES),IC50 (EGFR L858R) [nM],IC50 (EGFR (d746-750)) [nM],IC50 [1] [nM]
"COc1nn(C)cc1-c1cc(O[C@H]2CN(C)C[C@H]2F)c2c(Nc3ccc4ncsc4c3)ncnc2c1 (single isomer, unassigned) [Example 374]",≤ 10,≤ 10,10.1 to 50
"COc1nn(C)cc1-c1cc(O[C@H]2CN(C)C[C@@H]2F)c2c(Nc3ccc4ncsc4c3)ncnc2c1 (single isomer, unassigned) [Example 378]",≤ 10,≤ 10,≤ 10
"CN1C[C@H](F)[C@H](Oc2cc(-c3cnn(C)c3)cc3ncnc(Nc4ccc5ncsc5c4)c23)C1 (single isomer, unassigned) [Example 380]",≤ 10,≤ 10,10.1 to 50
"C[C@@H](Oc1cc(-c2cnn(C)c2)cc2ncnc(Nc3ccc4ncsc4c3F)c12)C1CN(C)C1 (single isomer, unassigned) [Example 387]",≤ 10,≤ 10,≤ 10
"C[C@@H](Oc1cc(-c2cnn(C)c2)cc2ncnc(Nc3ccc4ncsc4c3F)c12)C1CN(C)C1 (single isomer, unassigned) [Example 388]",> 50.1,10.1 to 50,> 50.1
"CC[C@H](Oc1cc(-c2cnn(C)c2)cc2ncnc(Nc3ccc4ncsc4c3F)c12)C1CN(C)C1 (single isomer, unassigned) [Example 389]",10.1 to 50,≤ 10,10.1 to 50
"CN1CC[C@H](Nc2cc3c(Nc4ccc5ncsc5c4)ncnc3cc2-c2ccn(C)n2)[C@H](F)C1 (single isomer, unassigned) [Example A05, N4-(benzo[d]thiazol-6-yl)-N6-((3R,4S)-3-fluoro-1-methylpiperidin-4-yl)-7-(1-methyl-1H-pyrazol-3-yl)quinazoline-4,6-diamine or N4-(benzo[d]thiazol-6-yl)-N6-((3S,4R)-3-fluoro-1-methylpiperidin-4-yl)-7-(1-methyl-1H-pyrazol-3-yl)quinazoline-4,6-diamine]",≤ 10,≤ 10,≤ 10
"Cn1cc(-c2cc(O[C@@H]3C[C@@H](O)[C@@H](O)C3)c3c(Nc4ccc5ncsc5c4)ncnc3c2)cn1 (single isomer, unassigned) [Example A22]",≤ 10,≤ 10,10.1 to 50
"C[C@@H](Oc1c(F)c(-c2cnn(C)c2)cc2ncnc(Nc3ccc4ncsc4c3F)c12)C1COC1 (single isomer, unassigned) [Example A28]",10.1 to 50,≤ 10,> 50.1
"Cn1cc(-c2cc(O[C@H]3COC[C@@H]3O)c3c(Nc4ccc5ncsc5c4)ncnc3c2)cn1 (single isomer, unassigned) [Example A29]",≤ 10,≤ 10,10.1 to 50
"Cn1cc(-c2cc(O[C@H]3COC[C@@H]3O)c3c(Nc4ccc5ncsc5c4)ncnc3c2)cn1 (single isomer, unassigned) [Example A30]",≤ 10,≤ 10,> 50.1
"CO[C@H]1COC[C@@H]1Oc1cc(-c2cnn(C)c2)cc2ncnc(Nc3ccc4ncsc4c3)c12 (single isomer, unassigned) [Example A32]",10.1 to 50,≤ 10,10.1 to 50
"CN1CC[C@H](O)[C@@H](Oc2cc(-c3cnn(C)c3)cc3ncnc(Nc4ccc5ncsc5c4)c23)C1 (single isomer, unassigned) [Example A33]",≤ 10,≤ 10,≤ 10
"CN1CC[C@H](O)[C@@H](Oc2cc(-c3cnn(C)c3)cc3ncnc(Nc4ccc5ncsc5c4)c23)C1 (single isomer, unassigned) [Example A34]",10.1 to 50,≤ 10,> 50.1
"CN1CC[C@H](Oc2cc(-c3cnn(C)c3)cc3ncnc(Nc4ccc5ncsc5c4)c23)[C@@H](O)C1 (single isomer, unassigned) [Example A35]",≤ 10,≤ 10,10.1 to 50
"CO[C@@H]1CCNC[C@H]1Oc1cc(-c2cnn(C)c2)cc2ncnc(Nc3ccc4ncsc4c3)c12 (single isomer, unassigned) [Example A37]",≤ 10,≤ 10,10.1 to 50
"CO[C@@H]1CCNC[C@H]1Oc1cc(-c2cnn(C)c2)cc2ncnc(Nc3ccc4ncsc4c3)c12 (single isomer, unassigned) [Example A38]",10.1 to 50,≤ 10,10.1 to 50
"CO[C@@H]1CCN(C)C[C@H]1Oc1cc(-c2cnn(C)c2)cc2ncnc(Nc3ccc4ncsc4c3)c12 (single isomer, unassigned) [Example A39]",10.1 to 50,≤ 10,> 50.1
"CO[C@@H]1CCN(C)C[C@H]1Oc1cc(-c2cnn(C)c2)cc2ncnc(Nc3ccc4ncsc4c3)c12 (single isomer, unassigned) [Example A40]",≤ 10,≤ 10,10.1 to 50
"CO[C@@H]1CNCC[C@H]1Oc1cc(-c2cnn(C)c2)cc2ncnc(Nc3ccc4ncsc4c3)c12 (single isomer, unassigned) [Example A41]",≤ 10,≤ 10,10.1 to 50
"CO[C@@H]1CNCC[C@H]1Oc1cc(-c2cnn(C)c2)cc2ncnc(Nc3ccc4ncsc4c3)c12 (single isomer, unassigned) [Example A42]",≤ 10,≤ 10,≤ 10

# Continued, values first:
IC50 (EGFR L858R) [nM],IC50 (EGFR (d746-750)) [nM],IC50 [1] [nM],Structure (SMILES)
≤ 10,≤ 10,≤ 10,"COc1nn(C)cc1-c1cc(O[C@H]2CN(C)C[C@H]2F)c2c(Nc3ccc4ncsc4c3)ncnc2c1 (single isomer, unassigned) [Example 373]"
10.1 to 50,10.1 to 50,10.1 to 50,"COc1nn(C)cc1-c1cc(O[C@H]2CN(C)C[C@@H]2F)c2c(Nc3ccc4ncsc4c3)ncnc2c1 (single isomer, unassigned) [Example 377]"
10.1 to 50,10.1 to 50,10.1 to 50,"C[C@@H](Oc1cc(-c2cnn(C)c2)cc2ncnc(Nc3ccc4ncsc4c3)c12)C1CN(C)C1 (single isomer, unassigned) [Example 384]"
≤ 10,≤ 10,≤ 10,"C[C@@H](Oc1cc(-c2cnn(C)c2)cc2ncnc(Nc3ccc4ncsc4c3)c12)C1CN(C)C1 (single isomer, unassigned) [Example 385]"
> 50.1,> 50.1,> 50.1,"CC[C@H](Oc1cc(-c2cnn(C)c2)cc2ncnc(Nc3ccc4ncsc4c3F)c12)C1CN(C)C1 (single isomer, unassigned) [Example 390]"
≤ 10,≤ 10,≤ 10,"COC[C@@H](C)Oc1cc(-n2cc([C@@H](C)O)cn2)cc2ncnc(Nc3ccc4ncsc4c3F)c12 (single isomer, unassigned) [Example A19]"
≤ 10,≤ 10,10.1 to 50,"C[C@@H](Oc1c(F)c(-c2cnn(C)c2)cc2ncnc(Nc3ccc4ncsc4c3F)c12)C1COC1 (single isomer, unassigned) [Example A27]"
≤ 10,≤ 10,10.1 to 50,"CO[C@H]1COC[C@@H]1Oc1cc(-c2cnn(C)c2)cc2ncnc(Nc3ccc4ncsc4c3)c12 (single isomer, unassigned) [Example A31]"
≤ 10,≤ 10,10.1 to 50,"CO[C@@H]1CN(C)CC[C@H]1Oc1cc(-c2cnn(C)c2)cc2ncnc(Nc3ccc4ncsc4c3)c12 (single isomer, unassigned) [Example A43]"
